The structures appear in SMILES notation.

Test [1] addresses GDP-bound KRAS protein (aa 1-169), containing both G12C and C118A amino acid substitutions (Homo sapiens, UniProt P01116, C118A/G12C). Kind of test: Coupled nucleotide exchange assay (SOS-mediated, AlphaScreen). Type of test: biochemical. The conditions noted are these: 5 min compound pre-incubation. Background: Bead proximity is the source of the signal in Alpha formats.
Test [2] concerns Phosphorylation of ERK1/2 in MIA PaCa-2 cells. Kind of test: Phospho-ERK1/2 MSD assay in MIA PaCa-2 cells. Type of test: cell-based. As to conditions: Homo sapiens, MIA PaCa-2, 2 h, read-out: p-ERK IC50 (2 h; MIA PaCa-2), 2 h compound treatment. Put shortly: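 Following a 2 or 4 h incubation with titrated compound, cells receive a 10 min pulse of 10 ng/mL EGF. Phospho-ERK1/2 in RIPA lysates is then quantified by MSD immunoassay, and IC50 values come from a four-parameter logistic model.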

Chain of GDP-bound KRAS protein (aa 1-169), containing both G12C and C118A amino acid substitutions (P01116 1-169 isoform P01116-2 G12C/C118A): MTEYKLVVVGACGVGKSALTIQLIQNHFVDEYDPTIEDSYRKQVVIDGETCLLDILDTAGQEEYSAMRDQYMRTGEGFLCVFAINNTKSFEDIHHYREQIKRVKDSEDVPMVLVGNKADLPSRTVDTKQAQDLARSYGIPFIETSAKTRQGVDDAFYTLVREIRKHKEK

Broadly, the IC50 is the concentration that inhibits the measured activity by half. Turning to `C=CC(=O)N1CCN(c2nc(=O)n(-c3ncccc3C(C)C)c3cc(-c4ccccc4F)c(Cl)cc23)[C@@H](C)C1` [Example 104, 6-Chloro-7-(2-fluorophenyl)-4-((2S)-2-methyl-4-(2-propenoyl)-1-piperazinyl)-1-(3-(2-propanyl)-2-pyridinyl)-2(1H)-quinazolinone], in test [1], the “Coupled exchange IC50 (5 min)” value was 0.062 | nda μM. Moreover, the IC50 in test [2] was found to be 78 nM.
For `C=CC(=O)N1CCN(c2nc(=O)n(-c3c(C)ccnc3C(C)C)c3nc(-c4c(F)ccc5[nH]ncc45)c(Cl)cc23)[C@@H](C)C1` (single isomer, unassigned) [Example 82-2], the “Coupled exchange IC50 (5 min)” value in test [1] was 0.096 | nda μM. Besides, the IC50 in test [2] is 239 nM.
On to `C=CC(=O)N1CCN(c2nc(=O)n(-c3cncnc3C(C)(C)C)c3nc(-c4ccccc4F)c(Cl)cc23)[C@@H](C)C1` [Example 54-110, 6-chloro-7-(2-fluorophenyl)-1-(4-(2-methyl-2-propanyl)-5-pyrimidinyl)-4-((2S)-2-methyl-4-(2-propenoyl)-1-piperazinyl) pyrido[2,3-d]pyrimidin-2(1H)-one], for which the “Coupled exchange IC50 (5 min)” value in test [1] is listed as 0.404 | nda μM. Also, the concentration for half-maximal inhibition (IC50) in test [2] turned out to be 408 nM.
Take `C=CC(=O)N1CCN(c2nc(=O)n(-c3c(C)ccnc3C(C)C)c3nc(-c4c(O)cccc4F)c(Cl)cc23)C[C@H]1C` (atropisomer, axis not shown; (M)) [Example 129, (M)-6-Chloro-7-(2-fluoro-6-hydroxyphenyl)-1-(4-methyl-2-(2-propanyl)-3-pyridinyl)-4-((3R)-3-methyl-4-(2-propenoyl)-1-piperazinyl)pyrido[2,3-d]pyrimidin-2(1H)-one]: the “Coupled exchange IC50 (5 min)” value in test [1] is reported as 0.045 | nda μM. Further, the 50% inhibitory concentration (IC50) in test [2] stood at 95 nM.
The like results for `C=CC(=O)N1CCN(c2nc(=O)n(-c3c(CC)ncnc3CC)c3nc(-c4c(O)cccc4F)c(F)cc23)[C@@H](C)C1` [Example 58-23, 1-(4,6-diethyl-5-pyrimidinyl)-6-fluoro-7-(2-fluoro-6-hydroxyphenyl)-4-((2S)-2-methyl-4-(2-propenoyl)-1-piperazinyl)pyrido[2,3-d]pyrimidin-2(1H)-one] were, in that order, 0.732 | nda μM and 894 nM.
Regarding `C=CC(=O)N1CCN(c2nc(=O)n(-c3c(C)ccnc3C(C)C)c3nc(-c4c(O)cccc4Cl)c(F)cc23)[C@@H](C)C1` [Example 58-9, 7-(2-chloro-6-hydroxyphenyl)-6-fluoro-1-(4-methyl-2-(2-propanyl)-3-pyridinyl)-4-((2S)-2-methyl-4-(2-propenoyl)-1-piperazinyl)pyrido[2,3-d]pyrimidin-2(1H)-one], in test [1], the “Coupled exchange IC50 (5 min)” value was 0.095 | nda μM. The IC50 in test [2] came to 220 nM.
Take `C=CC(=O)N1CCN(c2nc(=O)n(-c3ccccc3C(C)(C)C)c3nc(-c4ccccc4F)c(F)cc23)[C@@H](C)C1` (single isomer, unassigned) [Example 58-17-2]: in test [1], the “Coupled exchange IC50 (5 min)” value is 0.849 | nda μM. For the same compound, the 50% inhibitory concentration (IC50) in test [2] stood at 672 nM.
As for `C=CC(=O)N1CCN(c2nc(=O)n(-c3c(C)cc(CN(C)C)cc3C(C)C)c3nc(-c4ccccc4F)c(Cl)cc23)[C@@H](C)C1` [Example 80-1, 6-Chloro-1-(4-((dimethylamino)methyl)-2-methyl-6-(2-propanyl)phenyl)-7-(2-fluorophenyl)-4-((2S)-2-methyl-4-(2-propenoyl)-1-piperazinyl)pyrido[2,3-d]pyrimidin-2(1H)-one], in test [1], the “Coupled exchange IC50 (5 min)” value was 0.08 | nda μM. Further, in test [2], the 50% inhibitory concentration (IC50) turned out to be 52 nM.
The like results for `C=CC(=O)N1CCN(c2nc(=O)n(-c3c(C)ccnc3C(C)C)c3nc(-c4c(O)cc(F)cc4F)c(F)cc23)[C@@H](C)C1` (atropisomer, axis not shown; (M)) [Example 65-3, (M)-7-(2,4-difluoro-6-hydroxyphenyl)-6-fluoro-1-(4-methyl-2-(2-propanyl)-3-pyridinyl)-4-((2S)-2-methyl-4-(2-propenoyl)-1-piperazinyl)pyrido[2,3-d]pyrimidin-2(1H)-one] were, in that order, 0.096 | nda μM and 100 nM.
For `C=CC(=O)N1CCN(c2nc(=O)n(-c3c(C)ccnc3C(C)C)c3nc(-c4cc(N)ccc4Cl)c(F)cc23)[C@@H](C)C1` (single isomer, unassigned) [Example 58-8-1], in test [1], the “Coupled exchange IC50 (5 min)” value is 0.213 | nda μM. For the same compound, the half-maximal inhibitory concentration (IC50) in test [2] came out at 180 nM.
In the case of `C=CC(=O)N1CCN(c2nc(=O)n(-c3ncsc3C(C)C)c3nc(-c4ccccc4F)c(Cl)cc23)[C@@H](C)C1` [Example 55-19, 6-chloro-7-(2-fluorophenyl)-4-((2S)-2-methyl-4-(2-propenoyl)-1-piperazinyl)-1-(5-(2-propanyl)-1,3-thiazol-4-yl)pyrido[2,3-d]pyrimidin-2(1H)-one], in test [1], the “Coupled exchange IC50 (5 min)” value is reported as 0.22 | nda μM. Also, the concentration for half-maximal inhibition (IC50) in test [2] is 191 nM.
Consider `C=CC(=O)N1CCN(c2nc(=O)n(-c3ccccc3C(C)(C)C)c3nc(-c4c(O)cccc4F)c(F)cc23)[C@@H](C)C1` (single isomer, unassigned) [Example 58-1-2], for which the “Coupled exchange IC50 (5 min)” value in test [1] is reported as 0.572 | nda μM. Besides, the IC50 in test [2] came out at 570 nM.
As for `C=CC(=O)N1CCN(c2nc(=O)n(-c3c(C)cccc3C(C)C)c3nc(-c4nc(N)ccc4Cl)c(F)cc23)[C@@H](C)C1` (single isomer, unassigned) [Example 71-1-1], the “Coupled exchange IC50 (5 min)” value in test [1] is reported as 0.49 | nda μM. Besides, the IC50 in test [2] was determined as 725 nM.
For the compound `C=CC(=O)N1CCN(c2nc(=O)n(-c3c(C)ccnc3C(C)C)c3nc(-c4c(O)ccc(F)c4F)c(F)cc23)[C@@H](C)C1` (atropisomer, axis not shown; (M)) [Example 72-8, (M)-7-(2,3-difluoro-6-hydroxyphenyl)-6-fluoro-1-(4-methyl-2-(2-propanyl)-3-pyridinyl)-4-((2S)-2-methyl-4-(2-propenoyl)-1-piperazinyl)pyrido[2,3-d]pyrimidin-2(1H)-one], in test [1], the “Coupled exchange IC50 (5 min)” value is reported as 0.042 | nda μM. For the same compound, the IC50 in test [2] stood at 91 nM.
The like results for `C=CC(=O)N1CCN(c2nc(=O)n(-c3ncccc3C3CC3)c3nc(-c4ccccc4F)c(Cl)cc23)[C@@H](C)C1` [Example 60-1, 6-Chloro-1-(3-cyclopropyl-2-pyridinyl)-7-(2-fluorophenyl)-4-((2S)-2-methyl-4-(2-propenoyl)-1-piperazinyl)pyrido[2,3-d]pyrimidin-2(1H)-one] were, in that order, 0.422 | nda μM and 204 nM.
Take `C=CC(=O)N1CCN(c2nc(=O)n(-c3ccnn3C(C)C)c3nc(-c4c(O)cccc4F)c(Cl)cc23)[C@@H](C)C1` [Example 54-25, 6-chloro-7-(2-fluoro-6-hydroxy-phenyl)-4-((2S)-2-methyl-4-(2-propenoyl)-1-piperazinyl)-1-(1-(2-propanyl)-1H-pyrazol-5-yl)pyrido[2,3-d]pyrimidin-2(1H)-one]: the values for the IC50 in test [1] (read-out: Coupled exchange IC50 (5 min)) and in test [2] were 164 nM and 218 nM, respectively.
With `C=CC(=O)N1CCN(c2nc(=O)n(-c3c(CO)cccc3C(C)C)c3nc(-c4ccccc4F)c(Cl)cc23)[C@@H](C)C1` [Example 55-43, 6-chloro-7-(2-fluorophenyl)-1-(2-(hydroxymethyl)-6-(2-propanyl)phenyl)-4-((2S)-2-methyl-4-(2-propenoyl)-1-piperazinyl)pyrido[2,3-d]pyrimidin-2(1H)-one], the “Coupled exchange IC50 (5 min)” value in test [1] is 0.073 | nda μM. Also, in test [2], the IC50 is 70 nM.
As to `C=CC(=O)N1C[C@H](C)N(c2nc(=O)n(-c3c(C(C)C)ncnc3C(C)C)c3nc(-c4ccccc4F)c(Cl)cc23)[C@@H](C)C1` [Example 87-1, 6-Chloro-4-((2S,6S)-2,6-dimethyl-4-(2-propenoyl)-1-piperazinyl)-1-(4,6-di(2-propanyl)-5-pyrimidinyl)-7-(2-fluorophenyl)pyrido[2,3-d]pyrimidin-2(1H)-one], the “Coupled exchange IC50 (5 min)” value in test [1] was 0.034 | nda μM. Besides, the half-inhibitory concentration (IC50) in test [2] was found to be 11 nM.
The like results for `C=CC(=O)N1C[C@H](C)N(c2nc(=O)n(-c3c(C)ccnc3C(C)C)c3nc(-c4c(N)cccc4F)c(Cl)cc23)[C@@H](C)C1` (atropisomer, axis not shown; (M)) [Example 73-15, (M)-7-(2-amino-6-fluorophenyl)-6-chloro-4-((2S,6S)-2,6-dimethyl-4-(2-propenoyl)-1-piperazinyl)-1-(4-methyl-2-(2-propanyl)-3-pyridinyl)pyrido[2,3-d]pyrimidin-2(1H)-one] were, in that order, 0.015 | nda μM and 4 nM.
Take `C=CC(=O)N1CCN(c2nc(=O)n(-c3c(CC)cncc3CC)c3nc(-c4ccccc4F)c(Cl)cc23)[C@@H](C)C1` [Example 55-22, 6-chloro-1-(3,5-diethyl-4-pyridinyl)-7-(2-fluorophenyl)-4-((2S)-2-methyl-4-(2-propenoyl)-1-piperazinyl)pyrido[2,3-d]pyrimidin-2(1H)-one]: in test [1], the “Coupled exchange IC50 (5 min)” value was 0.653 | nda μM. Moreover, the half-inhibitory concentration (IC50) in test [2] came out at 303 nM.
In the case of `C=CC(=O)N1CCN(c2nc(=O)n(-c3c(C)cc(O)nc3C(C)C)c3nc(-c4ccccc4F)c(Cl)cc23)[C@@H](C)C1` [Example 137, 6-chloro-7-(2-fluorophenyl)-1-(4-methyl-6-oxo-2-(2-propanyl)-1,6-dihydro-3-pyridinyl)-4-((2S)-2-methyl-4-(2-propenoyl)-1-piperazinyl)pyrido[2,3-d]pyrimidin-2(1H)-one], the “Coupled exchange IC50 (5 min)” value in test [1] was 0.5 | nda μM. For the same compound, in test [2], the IC50 was 1790 nM.
`C=CC(=O)N1CCN(c2nc(=O)n(-c3c(C)ncnc3C(C)C)c3nc(-c4cc(F)ccc4F)c(Cl)cc23)[C@@H](C)C1` (single isomer, unassigned) [Example 55-39-2]: the “Coupled exchange IC50 (5 min)” value in test [1] is 0.121 | nda μM. Further, the IC50 in test [2] stood at 111 nM.
